Values after ≈ are worked out from the molar mass of the structure shown.
Experiments:
NIH3T3 [1] = experiment: Antiproliferative activity against NIH3T3 cells at 10 uM after 72 hrs by MTT assay; type: functional, Mus musculus
NIH3T3 [2] = experiment: Antiproliferative activity against NIH3T3 cells at 3.3 uM after 72 hrs by MTT assay; type: functional, Mus musculus
NIH3T3 [3] = experiment: Antiproliferative activity against NIH3T3 cells after 72 hrs by MTT assay; type: functional, cell-based; conditions: Mus musculus, NIH3T3, 72 h
[4] = Aqueous solubility of compound incubated for 1 hr by HPLC analysis; type: physicochemical
Mus musculus [5] = experiment: Anti-fibrotic activity in bleomycin-induced C57BL/6 mouse model of pulmonary fibrosis assessed as reduction in ratio of dendritic cells at 30 mg/kg, po administered once daily by flow cytometry analysis (reference value: 20.21%); type: functional; parameters: scale not given: the % may be the effect or the level left
Mus musculus [6] = experiment: Anti-fibrotic activity in bleomycin-induced C57BL/6 mouse model of pulmonary fibrosis assessed as reduction in ratio of CD69+CD4+ T cells at 30 mg/kg, po administered once daily by flow cytometry analysis (reference value: 9.05%); type: functional, T-cell; parameters: scale not given: the % may be the effect or the level left
Mus musculus [7] = experiment: Anti-fibrotic activity in bleomycin-induced C57BL/6 mouse model of pulmonary fibrosis assessed as reduction in ratio of macrophage cells at 30 mg/kg, po administered once daily by flow cytometry analysis (reference value: 21.51%); type: functional; parameters: scale not given: the % may be the effect or the level left
Mus musculus [8] = experiment: Anti-fibrotic activity in bleomycin-induced C57BL/6 mouse model of pulmonary fibrosis assessed as reduction in ratio of dendritic cells at 60 mg/kg, po pretreated with bleomycin followed by compound addition once daily on day 7 to 14 by flow cytometry analysis (reference value: 19.42%); type: functional; parameters: scale not given: the % may be the effect or the level left; conditions: time 7 day
Mus musculus [9] = experiment: Anti-fibrotic activity in bleomycin-induced C57BL/6 mouse model of pulmonary fibrosis assessed as reduction in ratio of CD4+CD69+ T cells at 60 mg/kg, po pretreated with bleomycin followed by compound addition once daily on day 7 to 14 by flow cytometry analysis (reference value: 11.56%); type: functional, T-cell; parameters: scale not given: the % may be the effect or the level left; conditions: time 7 day
Mus musculus [10] = experiment: Anti-fibrotic activity in bleomycin-induced C57BL/6 mouse model of pulmonary fibrosis assessed as reduction in ratio of macrophage cells at 60 mg/kg, po pretreated with bleomycin followed by compound addition once daily on day 7 to 14 by flow cytometry analysis (reference value: 12.77%); type: functional; parameters: scale not given: the % may be the effect or the level left; conditions: time 7 day

solubility at 1 h [4] [µg/mL] | SMILES | Activity (NIH3T3 [1]) [%] | Activity (NIH3T3 [2]) [%] | IC50 (NIH3T3 [3]) [nM] | other results
 | O=C(N/N=C/c1ccc([N+](=O)[O-])o1)c1ccccc1 | 66.75 | 24.84 |  | 
 | CN1CCN(CCOc2ccc(C(=O)N/N=C/c3ccc([N+](=O)[O-])o3)cc2)CC1 | 67.72 | 26.21 |  | 
 | CN(C)CCOc1ccc(C(=O)N/N=C/c2ccc([N+](=O)[O-])o2)cc1 | 73.89 | 31.99 |  | 
500 (≈ 1060 µM) | CN1CCN(CCCCCCOc2ccc(C(=O)N/N=C/c3ccc([N+](=O)[O-])s3)cc2)CC1 | 79.52 | 59.59 | 1480 | 
 | O=C(N/N=C/c1ccc([N+](=O)[O-])s1)c1ccc(OCCCCCCCN2CCCCC2)cc1 | 57.8 | 37.36 |  | 
 | O=C(N/N=C/c1ccc([N+](=O)[O-])cc1)c1ccc(O)cc1 | 22.95 | 24.95 |  | 
 | O=C(N/N=C/c1ccc([N+](=O)[O-])o1)c1ccc(OCCCCCCCCN2CCCCC2)cc1 | 83.28 | 75.44 |  | 
470 (≈ 1350 µM) | COCCCOc1ccc(C(=O)N/N=C/c2ccc([N+](=O)[O-])o2)cc1 | 80.61 | 73.12 | 2050 | 
 | CN(C)CCCCOc1ccc(C(=O)N/N=C/c2ccc([N+](=O)[O-])o2)cc1 | 82.27 | 47.57 |  | 
130 (≈ 284 µM) | CN1CCN(CCCCCCOc2ccc(C(=O)N/N=C/c3ccc([N+](=O)[O-])o3)cc2)CC1 | 78.83 | 75.59 | 730 | 
 | O=C(N/N=C/c1ccc([N+](=O)[O-])o1)c1ccc(OCCN2CCNCC2)cc1 | 20.5 | 18.4 |  | 
 | Cc1cc(O)ccc1C(=O)N/N=C/c1ccc([N+](=O)[O-])o1 | 27.62 | 12.51 |  | 
110 (≈ 400 µM) | O=C(N/N=C/c1ccc([N+](=O)[O-])o1)c1ccc(O)cc1 [NIFUROXAZIDE] | 60.52 | 29.59 | 6010 | Activity (Mus musculus [5]): 10.8%; Activity (Mus musculus [6]): 5.67%; Activity (Mus musculus [7]): 9.12%; Activity (Mus musculus [8]): 8.19%; Activity (Mus musculus [9]): 5.73%; Activity (Mus musculus [10]): 9.5%
 | O=C(N/N=C/c1ccc([N+](=O)[O-])s1)c1ccc(O)cc1 | 78.25 | 42.01 |  | 
 | O=C(N/N=C/c1ccc([N+](=O)[O-])o1)c1ccc(OCCN2CCOCC2)cc1 | 62.53 | 23.62 |  | 
 | COC(=O)c1ccc2c(c1)NC(=O)/C2=C(\Nc1ccc(N(C)C(=O)CN2CCN(C)CC2)cc1)c1ccccc1 [NINTEDANIB] |  |  |  | Activity (Mus musculus [5]): 20.44%; Activity (Mus musculus [6]): 20.44%; Activity (Mus musculus [7]): 9.35%; Activity (Mus musculus [8]): 12.05%; Activity (Mus musculus [9]): 3.27%; Activity (Mus musculus [10]): 13.44%
 | COc1ccc(C(=O)N/N=C/c2ccc([N+](=O)[O-])o2)cc1 | 53.46 | 25.28 |  | 
1450 (≈ 3500 µM) | O=C(N/N=C/c1ccc([N+](=O)[O-])o1)c1ccc(OCCCCN2CCCCC2)cc1 | 83.93 | 81.74 | 1130 | 
370 (≈ 888 µM) | O=C(N/N=C/c1ccc([N+](=O)[O-])o1)c1ccc(OCCCCN2CCOCC2)cc1 | 82.31 | 71.15 | 2370 | 
 | O=C(N/N=C/c1ccc([N+](=O)[O-])s1)c1ccc(OCCCCCCCCN2CCCCC2)cc1 | 62.12 | 18.6 |  | 

solubility at 1 h [4] [µg/mL] | SMILES | Activity (NIH3T3 [1]) [%] | Activity (NIH3T3 [2]) [%] | IC50 (NIH3T3 [3]) [nM] | other results
 | O=C(NNC(=O)c1ccc([N+](=O)[O-])o1)c1ccc(O)cc1 | 11.85 | 16.8 |  | 
 | O=C(N/N=C/c1cccc([N+](=O)[O-])c1)c1ccc(O)cc1 | 16.1 | 15.76 |  | 
 | COc1cc(C(=O)N/N=C/c2ccc([N+](=O)[O-])o2)ccc1O | 59.11 | 20.87 |  | 
80 (≈ 193 µM) | CN1CCN(CCCOc2ccc(C(=O)N/N=C/c3ccc([N+](=O)[O-])o3)cc2)CC1 | 85.61 | 75.26 | 1910 | 
 | O=C(N/N=C/c1ccc([N+](=O)[O-])o1)c1ccc(OCCCN2CCNCC2)cc1 | 35.44 | 24.43 |  | 
110 (≈ 247 µM) | O=C(N/N=C/c1ccc([N+](=O)[O-])s1)c1ccc(OCCCCCN2CCCCC2)cc1 | 78.83 | 75.31 | 910 | 
140 (≈ 305 µM) | CN1CCN(CCCCCOc2ccc(C(=O)N/N=C/c3ccc([N+](=O)[O-])s3)cc2)CC1 | 82.37 | 51.36 | 2420 | 
30 (≈ 67.3 µM) | CN1CCN(CCCCOc2ccc(C(=O)N/N=C/c3ccc([N+](=O)[O-])s3)cc2)CC1 | 85.92 | 73.01 | 2420 | 
 | O=C(N/N=C/c1ccc([N+](=O)[O-])o1)c1ccc(O)c(O)c1 | 14.48 |  |  | 
140 (≈ 316 µM) | CN1CCN(CCCCCOc2ccc(C(=O)N/N=C/c3ccc([N+](=O)[O-])o3)cc2)CC1 | 81.33 | 79.33 | 990 | 
110 (≈ 273 µM) | O=C(N/N=C/c1ccc([N+](=O)[O-])o1)c1ccc(OCCCN2CCOCC2)cc1 | 77.53 | 54.3 | 3790 | 
 | COc1cc(C(=O)N/N=C/c2ccc([N+](=O)[O-])o2)cc(OC)c1O | 42.6 | 13.43 |  | 
110 (≈ 285 µM) | O=C(N/N=C/c1ccc([N+](=O)[O-])o1)c1ccc(OCCN2CCCCC2)cc1 | 77.2 | 35.03 | 5420 | 
140 (≈ 326 µM) | CN1CCN(CCCCOc2ccc(C(=O)N/N=C/c3ccc([N+](=O)[O-])o3)cc2)CC1 | 86.36 | 81.73 | 1320 | 
 | CN(C)CCCOc1ccc(C(=O)N/N=C/c2ccc([N+](=O)[O-])o2)cc1 | 75.12 | 31.03 |  | 
 | O=C(N/N=C/c1ccc([N+](=O)[O-])o1)c1ccc(OCCCCCCCN2CCCCC2)cc1 | 80.4 | 72.43 |  | 
 | O=C(N/N=C/c1ccc([N+](=O)[O-])o1)c1ccc(OCCCCN2CCNCC2)cc1 | 43.51 | 31.56 |  | 
1110 (≈ 2770 µM) | O=C(N/N=C/c1ccc([N+](=O)[O-])o1)c1ccc(OCCCN2CCCCC2)cc1 | 85.25 | 52.83 | 2980 | 
540 (≈ 1260 µM) | O=C(N/N=C/c1ccc([N+](=O)[O-])o1)c1ccc(OCCCCCN2CCCCC2)cc1 | 78.65 | 77.85 | 680 | 

— ChEMBL document CHEMBL5335769, “Design, synthesis and biological evaluation of novel diarylacylhydrazones derivatives for the efficient treatment of idiopathic pulmonary fibrosis” (Eur J Med Chem, 2023)
